Data from patent US20210030761A1, “TREATMENT AND PREVENTION OF ALPHA HERPES VIRUS INFECTION” (THE REGENTS OF THE UNIVERSITY OF COLORADO, a body corporate, priority 2018, published 2021).

Experiments:
[1] = tested on: VZV-infected primary human spinal astrocytes (HA-sp); assay: Immunocytochemistry of cellular processes and NK-1R localization in VZV-infected HA-sp; type: cell-based; conditions: 3 DPI; 10 μM aprepitant; versus vehicle
Protocol: (§1) Cell Culture and Infection: Primary human spinal astrocytes (HA-sp; Sciencell, Carlsbad, Calif.) were seeded at 5,000 cells/cm' in a basal astrocyte medium containing 2% fetal bovine serum (FBS), 1% astrocyte growth supplement, and 1% 100× penicillin-streptomycin (Sciencell). After 24 hours, medium was changed to basal astrocyte medium containing 0.1% FBS and 1% 100× penicillin-streptomycin that was replenished every 72 hours for 7 days to establish quiescence. On day 7, spinal astrocytes were co-cultivated with VZV-infected spinal astrocytes (40 pfu/mL) or mock-infected spinal astrocytes. […] Light microscopy images to observe a cytopathic effect were obtained at 12, 24, 48 and 72 HPI followed by DNA extraction and PCR quantification of VZV DNA as described below. Substance P ELISA: Substance P was quantitated from mock- and VZV-infected HA-sp using a colorimetric competitive enzyme immunoassay kit according to the manufacturer's instructions (Enzo, Farmingdale, N.Y.). The sensitivity range was 9.76-10,000 pg/mL, as determined by controls run on the same assay as samples. Immunofluorescence Assay: HA-sp were propagated and treated as described above in an ibidi 24-well μ-Plate (ibidi, Martinsried, Germany). […] GFAP and NK-1R were detected using a 1:500 dilution of chicken anti-GFAP (Abcam) and a 1:100 dilution of rabbit anti-NK-1R (Novus Biologicals LLC, Littleton, Colo.), respectively. […]

uninfected HA-sp = conditions: tested at 1-100 μM, data not shown
Protocol: as §1

VZV = assay: Total VZV DNA in adult primary human perineurial cells (HPNCs); type: cell-based, varicella zoster virus; conditions: 72 HPI
Excerpt: At 12, 24, 48, and 72 HPI, cells were visualized by light microscopy in the untreated and treated cultures and harvested for DNA.

[2] = tested on: quiescent uninfected spinal astrocytes; assay: Substance P treatment of uninfected spinal astrocytes: NK-1R distribution by immunofluorescence and process formation by CellTracker Deep Red; type: cell-based, human; conditions: 10^−6 M substance P for 60 minutes
Protocol: as §1

**Q.** For `C[C@@H](O[C@H]1OCCN(Cc2n[nH]c(=O)[nH]2)[C@H]1c1ccc(F)cc1)c1cc(C(F)(F)F)cc(C(F)(F)F)c1` [aprepitant], which “lamellipodia formation in VZV-infected cells” value [1] is on record?
**A.** reduction in lamellipodia formation

**Q.** What about the “optimal concentration to avoid cell death” value (uninfected HA-sp) of the same molecule?
**A.** 10 µM

**Q.** How did the “total VZV DNA” value (VZV; treated at 24 HPI) turn out when `C[C@@H](OC[C@@]1(c2ccccc2)CC[C@]2(CCC(=O)N2)CN1)c1cc(C(F)(F)F)cc(C(F)(F)F)c1` [rolapitant] was run?
**A.** significantly reduced total VZV DNA

**Q.** What about the “total VZV DNA” value (VZV; treated at time of infection) of the same molecule?
**A.** significantly reduced total VZV DNA

**Q.** How did the NK-1R localization [2] turn out when substance P was run?
**A.** detected predominantly in cytoplasm

**Q.** What about the lamellipodia formation ([2]; CellTracker Deep Red) of the same molecule?
**A.** lack of lamellipodia
